Experimental data reported in patent US20150157588A1, “Pharmaceutical Composition Comprising Amino-Phenyl-Acetic Acid Octadec-(Z)-9-enyl Ester and Use Thereof for Treating Tumors” (Yeda Research and Development Co., Ltd., priority 2012, published 2015).

Test system: anti-CD3-activated T cells
Assay: Microarray gene expression, T cells activated by anti-CD3 antibody
Assay type: cell-based, human
Conditions: anti-CD3-activated T cells; for Fold change COL6A3: 201438_at; for Fold change CTSL: 202087_s_at; for Fold change IGF2 /// INS-IGF2: 202409_at; for Fold change IGFBP2: 202718_at; for Fold change SERPINA1: 202833_s_at; for Fold change S100A8: 202917_s_at; for Fold change MET: 203510_at; for Fold change MMP9: 203936_s_at; for Fold change LOC645619 /// LOC731007: 204347_at; for Fold change AK3L1: 204348_s_at; for Fold change SLC7A7: 204588_s_at; for Fold change SERPINB2: 204614_at; for Fold change TTK: 204822_at; for Fold change GNG4: 205184_at; for Fold change ADAMDEC1: 206134_at; for Fold change PLA2G7: 206214_at; for Fold change HCK: 208018_s_at
Procedure: CD3 positive T cells were extracted from a healthy donor according to a standard protocol, and seeded in T cell medium including RPMI, 10% fetal calf serum, sodium pyruvate, L-Glutamine, and Penicillin/Streptomycin. Following an overnight incubation with medium, the cells were treated by incubating for 2 hours at 37° C. with amino-phenyl-acetic acid octadec-(Z)-9-enyl ester at a concentration of 10 micrograms/ml in a final volume of 10 ml in T-cell medium with or without 0.05% ethanol. After incubation, half the cells from each treatment were centrifuged and 2 ml of Tri-reagent (Sigma) were added to the pellet. The other half of the cells from each treatment were transferred to anti-CD3 antibody coated 24 well plates for an overnight incubation at 37° C. Coating plates with an anti-CD3 antibody was carried out by incubating with 2 micrograms/ml of OKT3 anti-CD3 antibody overnight at 4° C., washing three times with PBS and blocking with filtered 1% Bovine Serum Albumin for 1 hour. After activation with anti-CD3 antibody, cells were centrifuged and 2 ml of Tri-reagent were added to the pellet.
RNA was extracted from unstimulated cells and from cells activated with anti-CD3 according to standard protocols and used for hybridization with a Human Genome U133A 2.0 (Affymetrix, Catalogue number 900468), according to the manufacturer's instructions. The results of the hybridization were read by a GeneChip scanner 3000 (Affymetrix) and analyzed by QuantArray (GSI lumonics).
The effects of amino-phenyl-acetic acid octadec-(Z)-9-enyl ester in ethanol solution or in an aqueous vehicle (hereinafter termed “in PBS”) on gene expression in unstimulated T cells and T cells activated by anti-CD3 antibody were compared by microarray analysis.

[1] = in ethanol solution vs untreated

In the case of `CCCCCCCC/C=C\CCCCCCCCOC(=O)C(N)c1ccccc1` (stereo not shown) [amino-phenyl-acetic acid octadec-(Z)-9-enyl ester], the “Fold change IL1B” value (39402_at, in ethanol solution vs untreated) is reported as 2.03, the “Fold change THBS1” value (201109_s_at, in ethanol solution vs untreated) is reported as 1.94 and the “Fold Change EIF5A” value (201123_s_at, in ethanol solution vs in PBS) is reported as −1.97. The “Fold change COL6A3” value (in ethanol solution vs in PBS) was −2.16, the “Fold change COL6A3” value [1] was −2.06 and the “Fold change BNIP3” value (201848_s_at, in ethanol solution vs in PBS) was −3.39. The “Fold change BNIP3” value (201848_s_at, in ethanol solution vs untreated) was −2.99, the “Fold change BNIP3” value (201849_at, in ethanol solution vs in PBS) was −3.34 and the “Fold change BNIP3” value (201849_at, in ethanol solution vs untreated) was −3.24. The “Fold change CTSL” value (in ethanol solution vs in PBS) was 2.18, the “Fold change CTSL” value [1] was 2.30 and the “Fold change IGF2 /// INS-IGF2” value (in ethanol solution vs in PBS) was −2.42. For the same compound, the “Fold change IGF2 /// INS-IGF2” value [1] was −2.17, the “Fold change CYP1B1” value (202436_s_at, in ethanol solution vs untreated) was 2.02 and the “Fold change IGFBP2” value (in ethanol solution vs in PBS) was −6.02. For the same compound, the “Fold change IGFBP2” value [1] was −5.13, the “Fold change SERPINA1” value (in ethanol solution vs in PBS) was 1.97 and the “Fold change SERPINA1” value [1] was 2.12. For the same compound, the “Fold change S100A8” value (in ethanol solution vs in PBS) was 2.11, the “Fold change S100A8” value [1] was 2.24 and the “Fold Change GBE1” value (203282_at, in ethanol solution vs in PBS) was −1.92. For the same compound, the “Fold change LMAN1” value (203294_s_at, in PBS vs untreated) was 1.91, the “Fold Change ABCA1” value (203504_s_at, in ethanol solution vs in PBS) was −1.90 and the “Fold change MET” value (in ethanol solution vs in PBS) was 2.76. The “Fold change MET” value [1] was 2.35, the “Fold change DFNA5” value (203695_s_at, in ethanol solution vs untreated) was 1.92 and the “Fold change MMP9” value (in ethanol solution vs in PBS) was 2.67. For the same compound, the “Fold change MMP9” value [1] was 2.74, the “Fold Change CA12” value (203963_at, in ethanol solution vs in PBS) was 2.02 and the “Fold Change CA12” value (203963_at, in ethanol solution vs untreated) was 1.91. For the same compound, the “Fold Change CDC6” value (203967_at, in ethanol solution vs in PBS) was −2.03, the “Fold change FCER1G” value (204232_at, in ethanol solution vs untreated) was 1.94 and the “Fold change LOC645619 /// LOC731007” value (in ethanol solution vs in PBS) was −2.52. For the same compound, the “Fold change LOC645619 /// LOC731007” value [1] was −2.25, the “Fold change AK3L1” value (in ethanol solution vs in PBS) was −3.93 and the “Fold change AK3L1” value [1] was −3.14. The “Fold change MMP1” value (204475_at, in ethanol solution vs untreated) was 2.32, the “Fold Change CA12” value (204508_s_at, in ethanol solution vs in PBS) was 2.09 and the “Fold change ABCG1” value (204567_s_at, in ethanol solution vs untreated) was −2.12. For the same compound, the “Fold change SLC7A7” value (in ethanol solution vs in PBS) was 2.05, the “Fold change SLC7A7” value [1] was 2.07 and the “Fold change EXO1” value (204603_at, in ethanol solution vs untreated) was −2.25. The “Fold change SERPINB2” value (in ethanol solution vs in PBS) was 2.60, the “Fold change SERPINB2” value [1] was 3.14 and the “Fold change TTK” value (in ethanol solution vs in PBS) was −2.04. For the same compound, the “Fold change TTK” value [1] was −2.40, the “Fold change DOCK4” value (205003_at, in ethanol solution vs untreated) was 2.33 and the “Fold change RAD51” value (205024_s_at, in ethanol solution vs untreated) was −2.09. For the same compound, the “Fold change IL1B” value (205067_at, in ethanol solution vs untreated) was 2.03, the “Fold change GNG4” value (in ethanol solution vs in PBS) was 2.04 and the “Fold change GNG4” value [1] was 2.23. The “Fold change IL6” value (205207_at, in ethanol solution vs untreated) was 1.95, the “Fold change probeset 205296_at” value (205296_at, in ethanol solution vs untreated) was −2.02 and the “Fold Change WDR76” value (205519_at, in ethanol solution vs in PBS) was −2.42. For the same compound, the “Fold change AQP9” value (205568_at, in ethanol solution vs untreated) was 2.27, the “Fold change ZC3H11A” value (205787_x_at, in PBS vs untreated) was 1.95 and the “Fold change MT3” value (205970_at, in ethanol solution vs untreated) was −2.05. For the same compound, the “Fold change TNFAIP6” value (206025_s_at, in ethanol solution vs untreated) was 1.92, the “Fold change SFRS6” value (206108_s_at, in PBS vs untreated) was 2.16 and the “Fold change ADAMDEC1” value (in ethanol solution vs in PBS) was 2.41. For the same compound, the “Fold change ADAMDEC1” value [1] was 2.87, the “Fold change PLA2G7” value (in ethanol solution vs in PBS) was 2.12 and the “Fold change PLA2G7” value [1] was 3.44. For the same compound, the “Fold change SERPINB7” value (206421_s_at, in ethanol solution vs untreated) was 1.99, the “Fold change IL24” value (206569_at, in ethanol solution vs untreated) was 1.97 and the “Fold change CSF3” value (207442_at, in ethanol solution vs untreated) was 2.14. For the same compound, the “Fold Change P4HA1” value (207543_s_at, in ethanol solution vs in PBS) was −2.20, the “Fold change HCK” value (in ethanol solution vs in PBS) was 1.93 and the “Fold change HCK” value [1] was 2.14. For the same compound, the “Fold change CASP2” value (208050_s_at, in PBS vs untreated) was 2.04.
